# Test results published in paper PMC5869712 (Scientific Reports, 2018).
# What was measured:
# JAK3 [1] = target: T1, JAK3 (Homo sapiens, UniProt P52333); test: Cys-containing kinase family panel (EurofinsCerep); type: biochemical
# T1 construct: ChemPartner (contract assay service)
# T1 sequence (P52333 1-1124): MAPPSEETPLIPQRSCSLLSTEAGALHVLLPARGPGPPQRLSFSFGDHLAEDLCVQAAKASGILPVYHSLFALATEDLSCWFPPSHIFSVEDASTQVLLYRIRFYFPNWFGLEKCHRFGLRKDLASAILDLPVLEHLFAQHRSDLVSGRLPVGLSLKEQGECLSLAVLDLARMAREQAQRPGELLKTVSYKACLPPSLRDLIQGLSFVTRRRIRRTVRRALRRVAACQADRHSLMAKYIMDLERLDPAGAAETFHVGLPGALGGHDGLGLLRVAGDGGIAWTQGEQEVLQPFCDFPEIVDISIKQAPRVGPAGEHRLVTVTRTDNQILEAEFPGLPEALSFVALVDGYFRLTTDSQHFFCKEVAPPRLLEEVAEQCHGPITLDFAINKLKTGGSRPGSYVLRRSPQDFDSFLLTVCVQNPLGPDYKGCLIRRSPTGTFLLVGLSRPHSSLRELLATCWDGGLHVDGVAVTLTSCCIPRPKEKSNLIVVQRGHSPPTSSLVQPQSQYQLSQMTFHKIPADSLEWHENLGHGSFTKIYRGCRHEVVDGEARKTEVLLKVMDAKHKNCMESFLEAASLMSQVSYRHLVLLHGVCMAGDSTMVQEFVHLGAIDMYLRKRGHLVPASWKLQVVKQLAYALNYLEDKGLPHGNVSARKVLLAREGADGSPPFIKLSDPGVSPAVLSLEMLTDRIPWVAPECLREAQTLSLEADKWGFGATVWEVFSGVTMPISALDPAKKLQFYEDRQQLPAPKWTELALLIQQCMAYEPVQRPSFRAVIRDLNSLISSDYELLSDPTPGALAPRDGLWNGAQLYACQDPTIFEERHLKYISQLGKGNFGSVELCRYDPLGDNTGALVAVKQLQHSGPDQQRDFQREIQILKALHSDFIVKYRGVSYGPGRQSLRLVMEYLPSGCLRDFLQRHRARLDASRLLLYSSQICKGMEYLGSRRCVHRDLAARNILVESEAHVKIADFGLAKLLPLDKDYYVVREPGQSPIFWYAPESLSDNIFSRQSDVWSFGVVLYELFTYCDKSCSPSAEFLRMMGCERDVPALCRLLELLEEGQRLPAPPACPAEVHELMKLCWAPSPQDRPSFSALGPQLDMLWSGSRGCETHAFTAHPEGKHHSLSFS
# ERBB2 = target: T2, ERBB2 (Homo sapiens, UniProt P04626); test: Cys-containing kinase family panel (EurofinsCerep); type: biochemical
# T2 construct: EurofinsCerep (contract assay service)
# [2] = test system: other kinases of the conserved cysteine panel (BMX, BTK, ITK, TXK, TEC, BLK, EGFR, ERBB4, ERBB2); test: Cys-containing kinase family panel, kinases other than JAK3 taken together; type: biochemical; conditions: 1 µM
# Description: The assay protocol guides are commercially available from ChemPartner.
# GRK5 = target: T3, GRK5 (Homo sapiens, UniProt P34947); test: Eurofins Kinase Profiler panel; type: biochemical; conditions: read-out: % inhibition (1μM), DMSO control=100%, lower=stronger
# T3 construct: purchased Eurofins KinaseProfiler (Eurofins Pharma Discovery Services UK, Dundee); JAK3 also ChemPartner
# GSK3β = target: T4, GSK3β (Homo sapiens, UniProt P49841); test: Eurofins Kinase Profiler panel; type: biochemical; conditions: read-out: % inhibition (1μM), DMSO control=100%, lower=stronger
# T4 construct: purchased Eurofins KinaseProfiler (Eurofins Pharma Discovery Services UK, Dundee); JAK3 also ChemPartner
# Aurora-A = target: T5, Aurora-A (Homo sapiens, UniProt O14965); test: Eurofins Kinase Profiler panel; type: biochemical
# T5 construct: Eurofins Pharma Discovery Services UK Limited (Kinase Profiler service)
# IKKε = target: T6, IKKε (Homo sapiens, UniProt Q14164); test: Eurofins Kinase Profiler panel; type: biochemical; conditions: read-out: % inhibition (1μM), DMSO control=100%, lower=stronger
# T6 construct: purchased Eurofins KinaseProfiler (Eurofins Pharma Discovery Services UK, Dundee); JAK3 also ChemPartner
# JNK2α2 = target: T7, JNK2α2 (Homo sapiens, UniProt P45984); test: Eurofins Kinase Profiler panel; type: biochemical; conditions: read-out: % inhibition (1μM), DMSO control=100%, lower=stronger
# T7 construct: purchased Eurofins KinaseProfiler (Eurofins Pharma Discovery Services UK, Dundee); JAK3 also ChemPartner
# CDK2 = target: T8, CDK2 (Homo sapiens, UniProt P24941); test: Eurofins Kinase Profiler panel; type: biochemical; conditions: read-out: % inhibition (1μM), DMSO control=100%, lower=stronger
# T8 construct: purchased Eurofins KinaseProfiler (Eurofins Pharma Discovery Services UK, Dundee); JAK3 also ChemPartner
# MEK1 = target: T9, MEK1 (Homo sapiens, UniProt Q02750); test: Eurofins Kinase Profiler panel; type: biochemical; conditions: read-out: % inhibition (1μM), DMSO control=100%, lower=stronger
# T9 construct: purchased Eurofins KinaseProfiler (Eurofins Pharma Discovery Services UK, Dundee); JAK3 also ChemPartner
# FAK = target: T10, FAK (Homo sapiens, UniProt Q05397); test: Eurofins Kinase Profiler panel; type: biochemical; conditions: read-out: % inhibition (1μM), DMSO control=100%, lower=stronger
# T10 construct: Eurofins Pharma Discovery Services UK Limited (Kinase Profiler service)
# JAK3 [3] = target: T1, JAK3; test: Reversibility assay (jump dilution); type: biochemical; conditions: jump dilution experiment
# Protocol: This test trial of our compound RB1 was performed on a ChemPartner reversibility assay platform (ChemPartner; Shanghai; China). Jump dilution analysis is commonly used. The compound was tested in duplicate under 2 conditions, preincubation with enzyme and no preincubation. The assay protocol guide is commercially available from ChemPartner.
# Supplementary Figure S5. […] RB1 with […]
# with kinase buffer that contains peptide substrate, ATP and cofactors at the final concentration for reaction, and read conversion data for 20 times for 1 h on caliper.
# (1 picture or pasted object on this page, not shown here)
# [4] = test system: serum TNF-α, IL-1β and IL-6 in CIA mice; test: Serum cytokines of CIA mice by ELISA; type: in vivo, mouse
# [5] = Acute toxicity in SD rats, oral; conditions: Sprague Dawley, rat, in vivo, po
# SD rats = test: Acute toxicity in SD rats, oral; conditions: SD rats; oral 0.4 g/kg to 2.0 g/kg
# BALB/c mice = test: Acute oral toxicity and haematology analysis in BALB/c mice; conditions: for HCT / HGB / LY / MCH / MCHC / MCV / MO / PLT / RBC / WBC: Balb/c mice
# T5 sequence (O14965 whole entry): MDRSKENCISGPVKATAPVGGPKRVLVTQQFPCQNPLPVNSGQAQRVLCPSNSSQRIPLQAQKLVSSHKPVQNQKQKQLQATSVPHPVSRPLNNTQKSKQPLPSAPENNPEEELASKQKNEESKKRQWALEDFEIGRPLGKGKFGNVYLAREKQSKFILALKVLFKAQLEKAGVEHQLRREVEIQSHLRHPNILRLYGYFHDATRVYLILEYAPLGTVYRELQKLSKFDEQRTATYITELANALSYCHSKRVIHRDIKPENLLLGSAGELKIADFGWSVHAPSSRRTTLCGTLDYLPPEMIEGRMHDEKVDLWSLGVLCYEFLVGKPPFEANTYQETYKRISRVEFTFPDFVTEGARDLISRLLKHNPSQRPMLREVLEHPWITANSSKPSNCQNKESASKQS
# T9 sequence (Q02750 whole entry): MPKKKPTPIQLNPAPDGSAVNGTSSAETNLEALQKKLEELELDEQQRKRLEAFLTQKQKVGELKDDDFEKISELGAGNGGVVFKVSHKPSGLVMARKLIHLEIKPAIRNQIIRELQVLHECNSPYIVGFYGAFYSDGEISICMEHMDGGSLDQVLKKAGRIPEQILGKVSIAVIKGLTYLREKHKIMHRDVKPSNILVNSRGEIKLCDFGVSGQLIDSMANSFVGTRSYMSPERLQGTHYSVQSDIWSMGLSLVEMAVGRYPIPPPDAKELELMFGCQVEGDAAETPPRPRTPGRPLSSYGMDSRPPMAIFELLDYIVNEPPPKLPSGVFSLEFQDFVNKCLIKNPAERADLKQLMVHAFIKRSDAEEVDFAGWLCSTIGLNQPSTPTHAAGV
# T4 sequence (P49841 whole entry): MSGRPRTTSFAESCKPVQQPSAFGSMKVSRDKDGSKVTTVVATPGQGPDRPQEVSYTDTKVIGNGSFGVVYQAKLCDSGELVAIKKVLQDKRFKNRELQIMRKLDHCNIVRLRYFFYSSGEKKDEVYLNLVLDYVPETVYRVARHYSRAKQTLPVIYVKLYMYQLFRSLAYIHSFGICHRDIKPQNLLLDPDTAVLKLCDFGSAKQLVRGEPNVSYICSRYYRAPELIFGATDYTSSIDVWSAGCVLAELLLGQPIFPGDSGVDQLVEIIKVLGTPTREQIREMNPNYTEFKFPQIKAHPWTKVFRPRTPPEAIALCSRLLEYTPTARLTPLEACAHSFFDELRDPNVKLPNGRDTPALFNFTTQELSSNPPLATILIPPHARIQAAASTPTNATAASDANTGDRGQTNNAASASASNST
# T10 sequence (Q05397 whole entry): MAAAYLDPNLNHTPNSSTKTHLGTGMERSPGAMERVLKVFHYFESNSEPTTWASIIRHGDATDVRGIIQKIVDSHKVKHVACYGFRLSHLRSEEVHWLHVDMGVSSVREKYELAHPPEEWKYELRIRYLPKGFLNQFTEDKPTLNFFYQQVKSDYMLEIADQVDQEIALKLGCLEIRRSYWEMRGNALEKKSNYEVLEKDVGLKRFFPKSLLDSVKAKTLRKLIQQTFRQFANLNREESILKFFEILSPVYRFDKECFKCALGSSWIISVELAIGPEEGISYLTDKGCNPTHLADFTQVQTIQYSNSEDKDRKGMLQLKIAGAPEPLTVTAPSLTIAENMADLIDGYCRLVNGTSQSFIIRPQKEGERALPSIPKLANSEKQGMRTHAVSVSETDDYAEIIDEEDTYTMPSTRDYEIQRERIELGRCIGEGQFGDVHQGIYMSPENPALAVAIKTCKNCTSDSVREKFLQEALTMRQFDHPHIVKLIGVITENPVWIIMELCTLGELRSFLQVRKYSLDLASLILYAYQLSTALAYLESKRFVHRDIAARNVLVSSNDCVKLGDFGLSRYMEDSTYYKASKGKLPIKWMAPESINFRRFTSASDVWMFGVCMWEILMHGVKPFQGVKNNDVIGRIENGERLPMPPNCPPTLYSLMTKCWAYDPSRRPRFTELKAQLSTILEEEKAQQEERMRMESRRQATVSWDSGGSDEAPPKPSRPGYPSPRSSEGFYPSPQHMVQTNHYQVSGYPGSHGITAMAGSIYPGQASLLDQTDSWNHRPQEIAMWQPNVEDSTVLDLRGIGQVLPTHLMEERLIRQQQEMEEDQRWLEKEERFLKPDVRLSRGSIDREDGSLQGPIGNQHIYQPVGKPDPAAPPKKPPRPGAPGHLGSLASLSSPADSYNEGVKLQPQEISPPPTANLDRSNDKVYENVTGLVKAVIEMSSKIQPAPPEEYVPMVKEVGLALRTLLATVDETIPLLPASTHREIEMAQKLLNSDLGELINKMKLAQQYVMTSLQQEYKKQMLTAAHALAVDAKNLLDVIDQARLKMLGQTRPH
# T3 sequence (P34947 whole entry): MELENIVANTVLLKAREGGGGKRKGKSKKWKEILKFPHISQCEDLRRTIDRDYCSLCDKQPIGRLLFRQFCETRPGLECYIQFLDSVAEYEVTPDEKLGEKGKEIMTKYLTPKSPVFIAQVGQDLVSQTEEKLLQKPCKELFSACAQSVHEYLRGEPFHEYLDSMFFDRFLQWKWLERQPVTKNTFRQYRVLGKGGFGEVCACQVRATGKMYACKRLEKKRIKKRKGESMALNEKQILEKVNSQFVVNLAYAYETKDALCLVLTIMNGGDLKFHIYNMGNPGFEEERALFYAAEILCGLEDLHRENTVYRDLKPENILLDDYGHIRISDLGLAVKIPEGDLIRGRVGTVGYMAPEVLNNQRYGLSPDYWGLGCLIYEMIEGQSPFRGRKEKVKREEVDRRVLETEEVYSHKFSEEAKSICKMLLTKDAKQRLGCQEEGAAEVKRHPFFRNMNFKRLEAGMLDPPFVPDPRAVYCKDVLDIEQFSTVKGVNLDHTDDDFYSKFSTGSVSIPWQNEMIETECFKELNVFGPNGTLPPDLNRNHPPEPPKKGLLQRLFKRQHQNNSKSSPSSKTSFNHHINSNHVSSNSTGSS
# T6 sequence (Q14164 whole entry): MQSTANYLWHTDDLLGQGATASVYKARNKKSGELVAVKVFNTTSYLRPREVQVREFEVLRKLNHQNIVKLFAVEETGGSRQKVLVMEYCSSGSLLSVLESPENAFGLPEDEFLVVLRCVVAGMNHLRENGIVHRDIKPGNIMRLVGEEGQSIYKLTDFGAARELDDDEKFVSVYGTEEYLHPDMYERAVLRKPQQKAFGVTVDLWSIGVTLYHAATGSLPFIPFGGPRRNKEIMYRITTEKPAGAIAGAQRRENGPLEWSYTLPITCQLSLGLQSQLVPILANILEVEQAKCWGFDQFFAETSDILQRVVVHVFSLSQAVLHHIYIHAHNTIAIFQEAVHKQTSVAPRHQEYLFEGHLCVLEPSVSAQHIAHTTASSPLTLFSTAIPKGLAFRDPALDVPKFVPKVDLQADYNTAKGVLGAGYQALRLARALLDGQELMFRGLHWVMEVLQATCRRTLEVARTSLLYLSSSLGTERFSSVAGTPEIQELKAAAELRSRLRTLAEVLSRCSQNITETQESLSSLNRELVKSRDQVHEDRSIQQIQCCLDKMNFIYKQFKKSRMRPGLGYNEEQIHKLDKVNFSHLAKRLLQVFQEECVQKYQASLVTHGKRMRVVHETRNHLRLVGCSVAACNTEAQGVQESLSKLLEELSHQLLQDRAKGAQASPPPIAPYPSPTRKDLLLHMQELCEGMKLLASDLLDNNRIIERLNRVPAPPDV
# T2 sequence (P04626 23-1255): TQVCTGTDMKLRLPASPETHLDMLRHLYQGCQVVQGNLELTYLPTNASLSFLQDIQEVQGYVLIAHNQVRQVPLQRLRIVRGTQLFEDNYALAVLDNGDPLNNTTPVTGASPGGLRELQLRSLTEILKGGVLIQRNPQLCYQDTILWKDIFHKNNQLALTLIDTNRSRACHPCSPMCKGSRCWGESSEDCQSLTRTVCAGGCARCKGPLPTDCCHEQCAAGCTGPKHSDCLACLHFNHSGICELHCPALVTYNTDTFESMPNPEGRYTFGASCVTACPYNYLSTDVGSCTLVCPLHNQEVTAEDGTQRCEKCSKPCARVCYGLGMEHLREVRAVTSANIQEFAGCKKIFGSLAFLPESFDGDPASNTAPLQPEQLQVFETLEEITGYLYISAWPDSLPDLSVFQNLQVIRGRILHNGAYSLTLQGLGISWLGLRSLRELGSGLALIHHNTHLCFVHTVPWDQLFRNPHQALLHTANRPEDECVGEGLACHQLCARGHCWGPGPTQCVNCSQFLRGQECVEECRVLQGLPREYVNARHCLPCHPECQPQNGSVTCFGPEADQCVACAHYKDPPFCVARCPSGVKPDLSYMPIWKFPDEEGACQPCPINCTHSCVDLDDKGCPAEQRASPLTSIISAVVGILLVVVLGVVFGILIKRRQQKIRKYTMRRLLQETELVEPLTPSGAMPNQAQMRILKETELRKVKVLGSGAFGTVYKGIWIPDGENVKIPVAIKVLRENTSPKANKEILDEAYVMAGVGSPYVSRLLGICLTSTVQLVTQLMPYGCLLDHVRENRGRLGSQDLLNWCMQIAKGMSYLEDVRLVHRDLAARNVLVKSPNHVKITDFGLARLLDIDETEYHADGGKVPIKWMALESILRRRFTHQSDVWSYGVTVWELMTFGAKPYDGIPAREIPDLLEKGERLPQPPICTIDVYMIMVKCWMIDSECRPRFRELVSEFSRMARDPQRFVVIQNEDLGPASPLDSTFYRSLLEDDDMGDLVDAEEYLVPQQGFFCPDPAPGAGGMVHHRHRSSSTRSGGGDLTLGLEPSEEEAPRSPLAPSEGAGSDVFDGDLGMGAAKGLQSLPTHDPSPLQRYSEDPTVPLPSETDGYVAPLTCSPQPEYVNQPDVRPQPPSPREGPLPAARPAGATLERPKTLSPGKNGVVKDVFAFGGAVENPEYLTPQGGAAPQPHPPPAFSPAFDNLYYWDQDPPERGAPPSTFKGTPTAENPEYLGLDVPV
structure (smiles),measurement,setting,value
C=CC(=O)N[C@@H]1CCCN(c2ncnc3[nH]ccc23)C1 [RB1],inhibition at 1 µM,JAK3 [1],99.1%
same,inhibition at 1 µM,ERBB2,2.85%
same,inhibition of other kinases of the conserved cysteine panel,[2],less than 15%
same,activity at 1 µM,GRK5,94%
same,activity at 1 µM,GSK3β,114%
same,IC50,Aurora-A; estimated,> 800 nM
same,activity at 1 µM,"Aurora-A; read-out: % inhibition (1μM), 1 µM, DMSO control=100%, lower=stronger",21%
same,activity at 1 µM,IKKε,97%
same,activity at 1 µM,JNK2α2,109%
same,activity at 1 µM,CDK2,93%
same,activity at 1 µM,MEK1,92%
same,activity at 1 µM,FAK,72%
same,active JAK3 over time after preincubation,JAK3 [3],no active JAK3 was detected
same,"serum TNF-α, IL-1β and IL-6 levels",[4],significantly reduced in a dose-dependent manner
same,LD50,[5],> 2000 mg/kg
same,"adverse effects on body weight, behaviour or appetite",SD rats,no observable adverse effects
same,acute haematological toxicity in WBC and lymphocyte counts,"BALB/c mice; BALB/c mice, oral, even at 1000 mg/kg, after 14 days",did not induce significant acute haematological toxicity
same,"acute oral toxicity, adverse effects","BALB/c mice; BALB/c mice, single doses, 14-days recovery time",no obvious adverse results
same,HCT,BALB/c mice; oral 100 mg/kg,46.94 ± 1.80%
same,HGB,BALB/c mice; oral 100 mg/kg,168.12 ± 7.36 g/L
same,LY,BALB/c mice; oral 100 mg/kg,65.93 ± 3.09%
same,MCH,BALB/c mice; oral 100 mg/kg,16.13 ± 0.12 pg
same,MCHC,BALB/c mice; oral 100 mg/kg,369.77 ± 2.01 g/L
same,MCV,BALB/c mice; oral 100 mg/kg,48.98 ± 0.22 fL
same,MO,BALB/c mice; oral 100 mg/kg,6.99 ± 1.26%
same,PLT,BALB/c mice; oral 100 mg/kg,385.34 ± 43.61 1×109/L
same,RBC,BALB/c mice; oral 100 mg/kg,9.20 ± 0.31 1×1012/L
same,WBC,BALB/c mice; oral 100 mg/kg,9.12 ± 0.98 1×109/L
same,HCT,BALB/c mice; oral 300 mg/kg,44.82 ± 1.77%
same,HGB,BALB/c mice; oral 300 mg/kg,158.49 ± 6.40 g/L
same,LY,BALB/c mice; oral 300 mg/kg,75.04 ± 3.17%
same,MCH,BALB/c mice; oral 300 mg/kg,15.98 ± 0.22 pg
same,MCHC,BALB/c mice; oral 300 mg/kg,360.54 ± 3.84 g/L
same,MCV,BALB/c mice; oral 300 mg/kg,50.03 ± 0.08 fL
same,MO,BALB/c mice; oral 300 mg/kg,6.50 ± 0.86%
same,PLT,BALB/c mice; oral 300 mg/kg,360.12 ± 33.74 1×109/L
same,RBC,BALB/c mice; oral 300 mg/kg,9.90 ± 0.22 1×1012/L
same,WBC,BALB/c mice; oral 300 mg/kg,8.64 ± 1.05 1×109/L
same,HCT,BALB/c mice; oral 1000 mg/kg,43.53 ± 1.68%
same,HGB,BALB/c mice; oral 1000 mg/kg,150.33 ± 6.94 g/L
same,LY,BALB/c mice; oral 1000 mg/kg,69.43 ± 1.88%
same,MCH,BALB/c mice; oral 1000 mg/kg,16.08 ± 0.09 pg
same,MCHC,BALB/c mice; oral 1000 mg/kg,355.00 ± 2.16 g/L
same,MCV,BALB/c mice; oral 1000 mg/kg,49.82 ± 0.12 fL
same,MO,BALB/c mice; oral 1000 mg/kg,8.23 ± 1.08%
same,PLT,BALB/c mice; oral 1000 mg/kg,327.67 ± 46.45 1×109/L
same,RBC,BALB/c mice; oral 1000 mg/kg,10.44 ± 0.16 1×1012/L
same,WBC,BALB/c mice; oral 1000 mg/kg,9.33 ± 1.12 1×109/L
